Source: ChEMBL document CHEMBL3864133, “Discovery of a Potent and Selective in Vivo Probe (GNE-272) for the Bromodomains of CBP/EP300” (J Med Chem, 2016)
Activity calls are given as the source filed them. The calls are words filed in the database; no cut-off is given here.

Assays:
[1] = Decrease in MYC mRNA expression in tumor of SCID beige mouse xenografted with human MOLM16 cells at 30 mg/kg, po administered twice daily via gavage as single dose measured after 2 hrs by RT-PCR analysis relative to control; assay type: functional, organism-based
HL-60 = experiment: Antiproliferative activity against human HL60 cells measured after 6 days by CellTiter-Glo assay; assay type: functional, cell-based
THP2 = experiment: Antiproliferative activity against human THP2 cells measured after 6 days by CellTiter-Glo assay; assay type: functional, cell-based
[2] = Antitumor activity against human MOLM16 cells xenografted in SCID beige mouse assessed as tumor growth inhibition at 12.5 mg/kg, po BID administered through gavage for 21 days; assay type: functional; conditions: read-out: TGI
[3] = Decrease in MYC mRNA expression in tumor of SCID beige mouse xenografted with human MOLM16 cells at 100 mg/kg, po administered twice daily via gavage as single dose measured after 2 hrs by RT-PCR analysis relative to control; assay type: functional, organism-based
EJM = experiment: Antiproliferative activity against human EJM cells measured after 6 days by CellTiter-Glo assay; assay type: functional, cell-based
[4] = molecular target: T1, CREB-binding protein/Histone acetyltransferase p300 (Homo sapiens, UniProt Q09472+Q92793); experiment: Inhibition of CBP/EP300 in human MOLM16 cells assessed as suppression of MYB expression at 5 uM measured after 4 hrs by RT-PCR analysis relative to DMSO control; assay type: cell-based
KMS34 = experiment: Antiproliferative activity against human KMS34 cells measured after 6 days by CellTiter-Glo assay; assay type: functional, cell-based
[5] = molecular target: T1, CREB-binding protein/Histone acetyltransferase p300; experiment: Inhibition of CBP/EP300 in human MOLM16 cells assessed as suppression of BCL2 expression at 5 uM measured after 4 hrs by RT-PCR analysis relative to DMSO control; assay type: cell-based
[6] = fCmax in nu/nu mouse at 100 mg/kg, po by LC-MS/MS analysis; assay type: ADME, organism-based; conditions: in vivo
[7] = molecular target: T1, CREB-binding protein/Histone acetyltransferase p300; experiment: Inhibition of CBP/EP300 in human MOLM16 cells assessed as suppression of CCND1 expression at 5 uM measured after 4 hrs by RT-PCR analysis relative to DMSO control; assay type: cell-based
KMS-11 = experiment: Antiproliferative activity against human KMS11 cells measured after 6 days by CellTiter-Glo assay; assay type: functional, cell-based
LP-1 = experiment: Antiproliferative activity against human LP-1 cells measured after 6 days by CellTiter-Glo assay; assay type: functional, cell-based
[8] = Decrease in MYC mRNA expression in tumor of SCID beige mouse xenografted with human MOLM16 cells at 10 mg/kg, po administered twice daily via gavage as single dose measured after 2 to 8 hrs by RT-PCR analysis; assay type: functional, organism-based
KMS26 = experiment: Antiproliferative activity against human KMS26 cells measured after 6 days by CellTiter-Glo assay; assay type: functional, cell-based
[9] = molecular target: T1, CREB-binding protein/Histone acetyltransferase p300; experiment: Inhibition of CBP/EP300 in human MOLM16 cells assessed as decrease in MYC expression measured after 4 hrs by RT-PCR analysis; assay type: cell-based
[10] = molecular target: T1, CREB-binding protein/Histone acetyltransferase p300; experiment: Inhibition of CBP/EP300 in human LP-1 cells assessed as decrease in MYC expression at 5 uM measured after 4 hrs by RT-PCR analysis relative to DMSO control; assay type: cell-based
Mus musculus [11] = experiment: Toxicity in SCID beige mouse xenografted with human MOLM16 cells assessed as body weight loss at 12.5 to 50 mg/kg, po BID administered through gavage for 21 days; assay type: organism-based; conditions: in vivo
[12] = molecular target: T1, CREB-binding protein/Histone acetyltransferase p300; experiment: Inhibition of CBP/EP300 in human MOLM16 cells assessed as suppression of BCL6 expression at 5 uM measured after 4 hrs by RT-PCR analysis relative to DMSO control; assay type: cell-based
Cytochrome P450 1A2 = Cytochrome P450 1A2 (Homo sapiens, UniProt P05177); experiment: Inhibition of CYP1A2 in human liver microsomes assessed as formation of acetaminophen from phenacetin measured after 30 mins in presence of NADPH by LC-MS/MS analysis; assay type: ADME; conditions: 0.5 h
[13] = Half life in nu/nu mouse at 1 mg/kg, iv or 100 mg/kg, po by LC-MS/MS analysis; assay type: ADME, organism-based; conditions: in vivo
Cytochrome P450 2D6 = Cytochrome P450 2D6 (Homo sapiens, UniProt P10635); experiment: Inhibition of CYP2D6 in human liver microsomes assessed as formation of dextrophan from dextromethorphan measured after 10 mins in presence of NADPH by LC-MS/MS analysis; assay type: ADME
MOLM16 [14] = experiment: Antiproliferative activity against human MOLM16 cells measured after 6 days by CellTiter-Glo assay; assay type: functional, cell-based
MOLM16 [15] = experiment: Antitumor activity against human MOLM16 cells xenografted in SCID beige mouse assessed as tumor growth inhibition compound administered through oral gavage twice daily for 21 days; assay type: functional, cell-based
Pfeiffer = experiment: Antiproliferative activity against human Pfeiffer cells measured after 6 days by CellTiter-Glo assay; assay type: functional, cell-based
Cytochrome P450 2C9 = Cytochrome P450 2C9 (Homo sapiens, UniProt P11712); experiment: Inhibition of CYP2C9 in human liver microsomes assessed as formation of 7-hydroxywarfarin from warfarin measured after 30 mins in presence of NADPH by LC-MS/MS analysis; assay type: ADME; conditions: 0.5 h
[16] = Antitumor activity against human MOLM16 cells xenografted in SCID beige mouse assessed as tumor growth inhibition at 50 mg/kg, po BID administered through gavage for 21 days; assay type: functional; conditions: read-out: TGI
Jurkat = experiment: Antiproliferative activity against human Jurkat cells measured after 6 days by CellTiter-Glo assay; assay type: functional, cell-based
[17] = Volume of distribution at steady state in nu/nu mouse at 1 mg/kg, iv or 100 mg/kg, po by LC-MS/MS analysis; assay type: ADME, organism-based; conditions: in vivo, read-out: Vdss
[18] = Protein binding in nu/nu mouse plasma at 5 uM measured after 4 hrs by LC-MS/MS analysis; assay type: ADME, cell-free; conditions: read-out: PPB (converted)
[19] = molecular target: T1, CREB-binding protein/Histone acetyltransferase p300; experiment: Inhibition of CBP/EP300 in human HL60 cells assessed as decrease in MYC expression at 5 uM measured after 4 hrs by RT-PCR analysis relative to DMSO control; assay type: cell-based; conditions: HL-60
Cytochrome P450 3A4 [20] = molecular target: T2, Cytochrome P450 3A4 (Homo sapiens, UniProt P08684); experiment: Inhibition of CYP3A4 in human liver microsomes assessed as formation of 6beta-hydroxytestosterone from testosterone measured after 10 mins in presence of NADPH by LC-MS/MS analysis; assay type: ADME; conditions: read-out: INH
Mus musculus [21] = experiment: Inhibition of MYC mRNA expression in SCID beige mouse xenografted with human MOLM16 cells assessed as MYC transcript level at 3 to 100 mg/kg, po administered twice daily via gavage as single dose measured after 24 hrs by RT-PCR analysis relative to control; assay type: functional; set-up: scale not given: the % may be the effect or the level left
[22] = Oral bioavailability in nu/nu mouse at 100 mg/kg by LC-MS/MS analysis; assay type: ADME, organism-based; conditions: in vivo
DOHH-2 = experiment: Antiproliferative activity against human DOHH2 cells measured after 6 days by CellTiter-Glo assay; assay type: functional, cell-based
[23] = molecular target: T1, CREB-binding protein/Histone acetyltransferase p300; experiment: Inhibition of CBP/EP300 in human KMS34 cells assessed as decrease in MYC expression at 5 uM measured after 4 hrs by RT-PCR analysis relative to DMSO control; assay type: cell-based
Cytochrome P450 3A4 [24] = molecular target: T2, Cytochrome P450 3A4; experiment: Inhibition of CYP3A4 in human liver microsomes assessed as formation of 1-hydroxymidazolam from midazolam measured after 10 mins in presence of NADPH by LC-MS/MS analysis; assay type: ADME

T1 sequence (Q09472 whole entry, looked up): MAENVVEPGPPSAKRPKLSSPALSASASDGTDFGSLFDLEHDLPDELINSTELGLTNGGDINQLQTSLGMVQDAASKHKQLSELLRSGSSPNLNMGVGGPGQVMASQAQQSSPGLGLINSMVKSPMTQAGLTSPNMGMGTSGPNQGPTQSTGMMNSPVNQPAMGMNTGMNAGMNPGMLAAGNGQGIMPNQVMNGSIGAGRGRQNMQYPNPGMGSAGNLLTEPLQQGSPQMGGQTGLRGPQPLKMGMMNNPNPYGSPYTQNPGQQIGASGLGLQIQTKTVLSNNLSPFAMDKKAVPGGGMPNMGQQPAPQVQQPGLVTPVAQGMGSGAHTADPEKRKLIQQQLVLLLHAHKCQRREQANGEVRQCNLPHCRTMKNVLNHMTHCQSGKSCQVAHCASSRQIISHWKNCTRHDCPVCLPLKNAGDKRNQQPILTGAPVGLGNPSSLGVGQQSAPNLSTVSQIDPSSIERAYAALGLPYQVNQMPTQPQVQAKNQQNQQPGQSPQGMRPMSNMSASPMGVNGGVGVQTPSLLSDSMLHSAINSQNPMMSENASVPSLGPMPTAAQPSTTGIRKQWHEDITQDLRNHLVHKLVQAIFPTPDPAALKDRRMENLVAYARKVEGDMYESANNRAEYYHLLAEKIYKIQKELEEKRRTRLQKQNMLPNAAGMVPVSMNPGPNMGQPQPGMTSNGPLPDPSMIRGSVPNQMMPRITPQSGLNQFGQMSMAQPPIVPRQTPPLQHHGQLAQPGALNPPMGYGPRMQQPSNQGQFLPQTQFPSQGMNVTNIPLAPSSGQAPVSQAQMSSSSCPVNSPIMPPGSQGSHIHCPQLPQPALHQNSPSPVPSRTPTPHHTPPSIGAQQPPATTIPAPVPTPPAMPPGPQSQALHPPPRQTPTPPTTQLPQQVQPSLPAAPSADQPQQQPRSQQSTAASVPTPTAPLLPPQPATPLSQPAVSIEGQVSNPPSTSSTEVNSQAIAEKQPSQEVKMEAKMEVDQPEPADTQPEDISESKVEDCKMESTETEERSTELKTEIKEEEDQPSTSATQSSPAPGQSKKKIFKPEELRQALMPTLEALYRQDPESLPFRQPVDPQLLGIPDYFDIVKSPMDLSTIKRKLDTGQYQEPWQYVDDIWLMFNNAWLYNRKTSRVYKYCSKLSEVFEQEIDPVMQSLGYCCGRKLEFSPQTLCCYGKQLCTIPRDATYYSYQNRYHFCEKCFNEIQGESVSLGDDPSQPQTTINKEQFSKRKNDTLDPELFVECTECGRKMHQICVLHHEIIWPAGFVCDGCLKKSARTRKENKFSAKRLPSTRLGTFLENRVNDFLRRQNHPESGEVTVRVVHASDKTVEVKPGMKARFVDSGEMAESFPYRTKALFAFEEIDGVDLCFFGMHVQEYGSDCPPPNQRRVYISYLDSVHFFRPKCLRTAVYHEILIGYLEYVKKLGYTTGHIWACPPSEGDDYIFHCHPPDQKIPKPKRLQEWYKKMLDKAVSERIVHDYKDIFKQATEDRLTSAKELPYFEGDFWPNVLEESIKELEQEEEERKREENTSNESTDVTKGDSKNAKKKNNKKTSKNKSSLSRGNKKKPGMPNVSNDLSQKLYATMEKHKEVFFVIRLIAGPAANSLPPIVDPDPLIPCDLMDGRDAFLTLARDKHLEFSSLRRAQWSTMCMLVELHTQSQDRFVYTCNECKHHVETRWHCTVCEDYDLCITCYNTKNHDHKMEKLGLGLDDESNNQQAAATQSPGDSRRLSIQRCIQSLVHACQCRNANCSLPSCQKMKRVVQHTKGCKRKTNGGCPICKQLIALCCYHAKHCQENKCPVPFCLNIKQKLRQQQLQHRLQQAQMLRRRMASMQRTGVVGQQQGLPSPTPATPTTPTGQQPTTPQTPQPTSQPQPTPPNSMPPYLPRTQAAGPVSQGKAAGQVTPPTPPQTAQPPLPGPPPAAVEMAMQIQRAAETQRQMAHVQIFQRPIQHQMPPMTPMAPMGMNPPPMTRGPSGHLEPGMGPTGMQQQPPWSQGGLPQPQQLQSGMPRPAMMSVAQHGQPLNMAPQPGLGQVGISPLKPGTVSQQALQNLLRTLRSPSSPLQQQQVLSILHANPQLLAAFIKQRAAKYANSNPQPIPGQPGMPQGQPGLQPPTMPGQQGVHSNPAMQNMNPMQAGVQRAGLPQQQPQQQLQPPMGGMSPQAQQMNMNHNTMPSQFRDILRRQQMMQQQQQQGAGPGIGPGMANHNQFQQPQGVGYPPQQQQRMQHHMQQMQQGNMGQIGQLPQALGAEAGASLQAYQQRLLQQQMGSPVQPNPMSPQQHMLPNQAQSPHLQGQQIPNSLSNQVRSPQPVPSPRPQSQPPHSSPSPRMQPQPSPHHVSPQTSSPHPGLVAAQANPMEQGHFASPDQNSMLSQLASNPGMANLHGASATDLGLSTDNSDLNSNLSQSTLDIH
T1 sequence (Q92793 whole entry, looked up): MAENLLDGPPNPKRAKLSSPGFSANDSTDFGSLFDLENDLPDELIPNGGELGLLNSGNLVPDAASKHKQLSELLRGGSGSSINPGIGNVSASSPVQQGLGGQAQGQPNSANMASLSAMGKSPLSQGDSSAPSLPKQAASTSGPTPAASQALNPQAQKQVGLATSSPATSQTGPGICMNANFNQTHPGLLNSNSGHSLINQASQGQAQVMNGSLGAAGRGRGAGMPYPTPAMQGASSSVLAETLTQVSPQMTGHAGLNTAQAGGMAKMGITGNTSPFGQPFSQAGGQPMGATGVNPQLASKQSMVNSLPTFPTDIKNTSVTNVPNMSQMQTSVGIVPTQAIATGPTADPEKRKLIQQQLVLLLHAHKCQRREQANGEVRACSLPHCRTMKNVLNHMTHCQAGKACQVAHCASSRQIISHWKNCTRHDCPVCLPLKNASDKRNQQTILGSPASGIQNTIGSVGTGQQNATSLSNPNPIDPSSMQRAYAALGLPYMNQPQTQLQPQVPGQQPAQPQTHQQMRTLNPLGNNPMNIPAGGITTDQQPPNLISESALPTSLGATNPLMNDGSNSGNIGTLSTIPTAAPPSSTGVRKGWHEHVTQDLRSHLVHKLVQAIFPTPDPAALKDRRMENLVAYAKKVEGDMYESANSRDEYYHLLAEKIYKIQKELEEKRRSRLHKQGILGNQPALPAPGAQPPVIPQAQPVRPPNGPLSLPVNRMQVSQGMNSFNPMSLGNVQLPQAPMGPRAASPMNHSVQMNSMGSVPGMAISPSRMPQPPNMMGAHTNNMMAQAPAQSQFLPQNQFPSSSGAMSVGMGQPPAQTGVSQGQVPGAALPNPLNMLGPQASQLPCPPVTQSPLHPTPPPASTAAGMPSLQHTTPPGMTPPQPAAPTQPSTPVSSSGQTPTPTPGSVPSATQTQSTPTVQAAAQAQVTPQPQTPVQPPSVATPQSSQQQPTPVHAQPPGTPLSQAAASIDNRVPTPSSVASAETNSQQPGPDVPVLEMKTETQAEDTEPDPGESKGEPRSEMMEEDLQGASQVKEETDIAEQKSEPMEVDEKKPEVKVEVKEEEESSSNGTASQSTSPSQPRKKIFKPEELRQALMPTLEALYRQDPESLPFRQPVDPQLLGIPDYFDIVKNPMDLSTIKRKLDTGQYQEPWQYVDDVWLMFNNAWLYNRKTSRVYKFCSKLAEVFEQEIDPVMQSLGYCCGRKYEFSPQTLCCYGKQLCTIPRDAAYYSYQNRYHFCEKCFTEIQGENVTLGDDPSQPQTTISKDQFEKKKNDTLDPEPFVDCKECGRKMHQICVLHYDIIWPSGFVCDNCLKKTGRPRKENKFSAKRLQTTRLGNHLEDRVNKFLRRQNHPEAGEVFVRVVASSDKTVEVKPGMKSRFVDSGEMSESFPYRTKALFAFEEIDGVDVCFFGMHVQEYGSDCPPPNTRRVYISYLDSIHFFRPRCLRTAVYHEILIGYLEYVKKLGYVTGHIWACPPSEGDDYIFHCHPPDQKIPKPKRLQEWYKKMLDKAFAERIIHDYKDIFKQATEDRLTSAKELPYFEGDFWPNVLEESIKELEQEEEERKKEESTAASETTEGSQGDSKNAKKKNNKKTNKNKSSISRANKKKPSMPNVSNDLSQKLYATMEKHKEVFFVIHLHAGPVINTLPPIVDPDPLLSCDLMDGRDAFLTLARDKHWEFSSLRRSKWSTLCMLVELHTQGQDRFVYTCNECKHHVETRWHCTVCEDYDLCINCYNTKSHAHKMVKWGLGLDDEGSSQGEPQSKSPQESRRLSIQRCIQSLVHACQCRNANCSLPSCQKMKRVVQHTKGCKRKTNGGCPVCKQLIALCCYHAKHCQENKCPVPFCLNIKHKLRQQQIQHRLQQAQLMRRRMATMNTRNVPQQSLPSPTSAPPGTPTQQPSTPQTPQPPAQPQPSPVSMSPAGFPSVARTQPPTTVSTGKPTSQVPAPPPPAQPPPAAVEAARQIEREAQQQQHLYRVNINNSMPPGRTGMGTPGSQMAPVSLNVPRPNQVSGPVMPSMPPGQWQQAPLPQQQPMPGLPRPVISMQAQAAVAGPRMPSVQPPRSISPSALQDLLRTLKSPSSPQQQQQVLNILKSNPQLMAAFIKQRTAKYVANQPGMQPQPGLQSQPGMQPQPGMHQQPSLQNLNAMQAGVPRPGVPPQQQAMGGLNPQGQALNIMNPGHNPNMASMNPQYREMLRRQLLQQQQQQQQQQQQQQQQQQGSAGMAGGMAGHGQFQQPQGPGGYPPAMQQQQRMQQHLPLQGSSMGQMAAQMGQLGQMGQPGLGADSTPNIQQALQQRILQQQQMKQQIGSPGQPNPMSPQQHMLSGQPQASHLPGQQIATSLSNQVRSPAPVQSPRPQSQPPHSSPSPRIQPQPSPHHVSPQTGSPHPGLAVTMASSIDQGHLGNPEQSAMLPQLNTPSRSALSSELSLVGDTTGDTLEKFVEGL

## CC(=O)N1CCc2c(c(Nc3ccc(-c4cnn(C)c4)cc3F)nn2[C@@H]2CCOC2)C1
[1]
  inhibition: 78%
HL-60
  Activity: Active
THP2
  Activity: Active
[2]
  inhibition in vivo at 12.5 mg/kg: 46%
[3]
  inhibition: 86%
EJM
  Activity: Active
[4]
  inhibition: Active
KMS34
  Activity: Active
[5]
  inhibition: Active
[6]
  fCmax: 26 µM
[7]
  inhibition: Active
KMS-11
  Activity: Active
LP-1
  Activity: Active
[8]
  inhibition: Active
KMS26
  Activity: Active
[9]
  EC90: 621 nM
[10]
  inhibition: Active
Mus musculus [11]
  Activity: 7.4%
[12]
  inhibition: Active
Cytochrome P450 1A2
  INH: > 10 µM
[13]
  half-life: 2 h
Cytochrome P450 2D6
  INH: > 10 µM
MOLM16 [14]
  Activity: Active
MOLM16 [15]
  TGI: Dose-dependent effect
Pfeiffer
  Activity: Active
Cytochrome P450 2C9
  INH: > 10 µM
[16]
  inhibition in vivo at 50 mg/kg: 102%
Jurkat
  Activity: Active
[17]
  Vd: 1.5 L/kg
[18]
  fraction unbound at 4 h, 5 µM: 0.16
[19]
  inhibition: Active
Cytochrome P450 3A4 [20]
  IC50: > 10000 nM
Mus musculus [21]
  Activity: 150 - 200%
[22]
  bioavailability: 100%
DOHH-2
  Activity: Active
[23]
  inhibition: Active
Cytochrome P450 3A4 [24]
  INH: > 10 µM
